# In US6461619B1 (Somerset Pharmaceuticals, Inc., priority 1998, dated 2002):
# Counter-ions that a name gives are not always drawn.
# Assays:
# [1] = test system: second-degree burn wounds; test: second-degree burn wound model, epidermal migration (epithelization) assessment; format: in vivo, Swine; settings: for Percent of wounds completely epithelized / number of wounds healed (completely epithelized) over the number of wounds assessed: pig
# Description: The ability of selegiline and desmethylselegiline to assist in the healing of burns was tested using a second-degree burn wound model. In second-degree burns, the entire surface of the epidermis is destroyed. An epidermal covering is regenerated from the remaining epithelial and epidermal cells adjacent to the burns. This phase of the healing process is called epithelization.
# Swine were used for the experimental research animal because their skin has many morphological similarities to human skin. Seven young female specific pathogen free (SPF:Ken-O-Kaw Farms, Windsor, Ill.) pigs weighing 25-30 kg were kept in house for two weeks prior to initiating the experiment. These animals were fed a basal diet ad libitum and housed individually in facilities with controlled temperature (19-21° C.) and lights (12 h/12 h LD).
# Experimental animals were clipped with standard animal clippers on the day of the experiment. The skin on the back and both sides of the animal was prepared for wounding by washing with a non-antibiotic soap and sterile water. Each animal was anesthetized i.m. with ketamine-HCl (20 mg/kg), xylazine (2 mg/kg) and atropine (0.05 mg/kg), followed by mask inhalation of an isoflurane and oxygen combination. Five specifically designed cylindrical brass rods weighing 358 g each were heated in a boiling water bath to 100° C. A rod was removed from the water bath and wiped dry before being applied to the skin surface to prevent water droplets from creating a steam burn on the skin. The brass rod was held at a vertical position on the skin for six seconds with all pressure being supplied by gravity in order to make a burn 8.5 mm diameter×0.8 mm deep. Immediately after burning, the roof of the burn blister was removed with a sterile spatula. The burn wounds were made approximately 2 cm from each other.
# Approximately 90 burn wounds were made on the anterior two-thirds of the animal. The posterior third of the animal cannot be used because of anatomical differences in burn wound healing (a more rapid healing of burns has been observed at that position).
# A total of seven animals were used and a total of fifteen wounds per treatment group were analyzed on each of days 7-12 after wounding. Treatments were coded to maintain blind study compliance. The burn wounds were treated with 25 ug of test article (enough to cover each wound). Treatments were allowed to penetrate into the sites for at least a 20 minute time period. Each treatment was applied within 20 minutes of blister removal and treatment occurred once a day for the first five days.
# Beginning on day seven after wounding (day 0) and each day thereafter for four to six days, five burn wounds and the surrounding normal skin from each treatment area were excised using an electrokeratome. Any specimens that were not excised intact were discarded. The excised wounds and the surrounding normal skin were incubated in 0.5 M NaBr for 24 hours at 37° C. After incubation, the specimens were separated into epidermal and dermal sheets. The epidermis was examined macroscopically for defects in the area of the burn wounds. Epithelization was considered complete if no defect was present (healed). […] The epidermal sheet was placed on cardboard for a permanent record.
# The number of wounds healed (completely epithelized) were divided by the total number of wounds sampled per day and multiplied by 100.
# MAO-A = biological target: T1, MAO-A (Homo sapiens, UniProt P21397); settings: in comparison to selegiline, background statement; cited from earlier work
# T1 sequence (P21397 1-527): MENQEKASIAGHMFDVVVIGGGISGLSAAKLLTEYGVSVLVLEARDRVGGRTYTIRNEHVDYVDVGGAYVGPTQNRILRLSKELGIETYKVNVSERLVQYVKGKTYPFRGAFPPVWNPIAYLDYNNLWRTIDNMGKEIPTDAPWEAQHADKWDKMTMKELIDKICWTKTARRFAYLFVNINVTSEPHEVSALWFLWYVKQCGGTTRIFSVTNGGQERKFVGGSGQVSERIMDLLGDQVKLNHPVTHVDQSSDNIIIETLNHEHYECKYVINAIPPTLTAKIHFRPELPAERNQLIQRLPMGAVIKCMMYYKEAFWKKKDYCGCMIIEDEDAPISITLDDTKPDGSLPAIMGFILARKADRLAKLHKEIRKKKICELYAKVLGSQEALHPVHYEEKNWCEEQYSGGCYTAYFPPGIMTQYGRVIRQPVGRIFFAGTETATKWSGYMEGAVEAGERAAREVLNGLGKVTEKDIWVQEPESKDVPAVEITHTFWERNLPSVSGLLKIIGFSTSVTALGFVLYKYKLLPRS
# monoamine oxidase B = biological target: T2, monoamine oxidase B (Homo sapiens, UniProt P27338); settings: background statement; cited from earlier work
# T2 sequence (P27338 1-520): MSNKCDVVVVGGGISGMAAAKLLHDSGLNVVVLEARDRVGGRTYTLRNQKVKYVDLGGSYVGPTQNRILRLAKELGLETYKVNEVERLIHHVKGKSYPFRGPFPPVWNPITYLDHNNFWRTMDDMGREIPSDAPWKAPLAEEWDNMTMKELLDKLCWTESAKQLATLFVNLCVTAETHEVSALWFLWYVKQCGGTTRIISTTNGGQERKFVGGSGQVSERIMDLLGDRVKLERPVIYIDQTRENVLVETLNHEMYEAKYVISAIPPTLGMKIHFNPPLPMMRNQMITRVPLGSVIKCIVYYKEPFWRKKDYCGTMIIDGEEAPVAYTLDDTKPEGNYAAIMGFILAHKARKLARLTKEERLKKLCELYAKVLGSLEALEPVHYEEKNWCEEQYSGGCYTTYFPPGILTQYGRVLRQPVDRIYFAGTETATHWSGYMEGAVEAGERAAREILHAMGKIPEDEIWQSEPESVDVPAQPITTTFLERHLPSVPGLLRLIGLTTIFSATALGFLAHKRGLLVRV
# [2] = 10^-4M topical, day 7 after burning
# [3] = 10^-4M topical, day 8 after burning
# [4] = 10^-4M topical, day 9 after burning
# [5] = 10^-4M topical, day 10 after burning
# [6] = 10^-4M topical, day 11 after burning
# [7] = 10^-4M topical, day 12 after burning
# [8] = 10^-4M topical, day 13 after burning
# [9] = 10^-6M topical, day 7 after burning
# [10] = 10^-6M topical, day 8 after burning
# [11] = 10^-6M topical, day 9 after burning
# [12] = 10^-6M topical, day 10 after burning
# [13] = 10^-8M topical, day 7 after burning
# [14] = 10^-8M topical, day 8 after burning
# [15] = 10^-8M topical, day 9 after burning
# [16] = 10^-8M topical, day 10 after burning
# [17] = 10^-8M topical, day 11 after burning
# [18] = 10^-8M topical, day 12 after burning
# [19] = 10^-8M topical, day 13 after burning
structure (smiles),measurement,setting,value
"C#CCNC(C)Cc1ccccc1 (centres unmarked) [desmethylselegiline HCl, desmethylselegiline]",Percent of wounds completely epithelized,[1]; [2],(0%)
same,number of wounds healed (completely epithelized) over the number of wounds assessed,[1]; [2], 0/15
same,Percent of wounds completely epithelized,[1]; [3],(0%)
same,number of wounds healed (completely epithelized) over the number of wounds assessed,[1]; [3], 0/15
same,Percent of wounds completely epithelized,[1]; [4],(0%)
same,number of wounds healed (completely epithelized) over the number of wounds assessed,[1]; [4], 0/15
same,Percent of wounds completely epithelized,[1]; [5],(0%)
same,number of wounds healed (completely epithelized) over the number of wounds assessed,[1]; [5], 0/15
same,Percent of wounds completely epithelized,[1]; [6],7%
same,number of wounds healed (completely epithelized) over the number of wounds assessed,[1]; [6], 1/15
same,Percent of wounds completely epithelized,"[1]; 10^-4M topical, day 11 after burning, listed as B-1",(7%)
same,Percent of wounds completely epithelized,[1]; [7],33%
same,number of wounds healed (completely epithelized) over the number of wounds assessed,[1]; [7], 5/15
same,Percent of wounds completely epithelized,"[1]; 10^-4M topical, day 12 after burning, listed as B-1",(33%)
same,Percent of wounds completely epithelized,[1]; [8],69%
same,number of wounds healed (completely epithelized) over the number of wounds assessed,[1]; [8],{fraction (11/16 )}
same,Percent of wounds completely epithelized,"[1]; 10^-4M topical, day 13 after burning, listed as B-1",(69%)
same,time to complete epithelization compared with other treatment groups,[1]; 10^-6 M,completely epithelized sooner than all other treatment groups
same,Percent of wounds completely epithelized,[1]; [9],(0%)
same,number of wounds healed (completely epithelized) over the number of wounds assessed,[1]; [9], 0/15
same,Percent of wounds completely epithelized,[1]; [10],(0%)
same,number of wounds healed (completely epithelized) over the number of wounds assessed,[1]; [10], 0/15
same,Percent of wounds completely epithelized,[1]; [11],(0%)
same,number of wounds healed (completely epithelized) over the number of wounds assessed,[1]; [11], 0/15
same,Percent of wounds completely epithelized,[1]; [12],(0%)
same,number of wounds healed (completely epithelized) over the number of wounds assessed,[1]; [12], 0/15
same,number of wounds healed (completely epithelized) over the number of wounds assessed,"[1]; 10^-6M topical, day 11 after burning", 5/15
same,number of wounds healed (completely epithelized) over the number of wounds assessed,"[1]; 10^-6M topical, day 12 after burning", 7/15
same,number of wounds healed (completely epithelized) over the number of wounds assessed,"[1]; 10^-6M topical, day 13 after burning", 6/16
same,Percent of wounds completely epithelized,[1]; [13],(0%)
same,number of wounds healed (completely epithelized) over the number of wounds assessed,[1]; [13], 0/15
same,Percent of wounds completely epithelized,[1]; [14],(0%)
same,number of wounds healed (completely epithelized) over the number of wounds assessed,[1]; [14], 0/15
same,Percent of wounds completely epithelized,[1]; [15],(0%)
same,number of wounds healed (completely epithelized) over the number of wounds assessed,[1]; [15], 0/15
same,Percent of wounds completely epithelized,[1]; [16],(0%)
same,number of wounds healed (completely epithelized) over the number of wounds assessed,[1]; [16], 0/15
same,Percent of wounds completely epithelized,[1]; [17],33%
same,number of wounds healed (completely epithelized) over the number of wounds assessed,[1]; [17], 5/15
same,Percent of wounds completely epithelized,"[1]; 10^-8M topical, day 11 after burning, listed as B-3",(33%)
same,Percent of wounds completely epithelized,[1]; [18],67%
same,number of wounds healed (completely epithelized) over the number of wounds assessed,[1]; [18],{fraction (10/15 )}
same,Percent of wounds completely epithelized,"[1]; 10^-8M topical, day 12 after burning, listed as B-3",(67%)
same,Percent of wounds completely epithelized,[1]; [19],67%
same,number of wounds healed (completely epithelized) over the number of wounds assessed,[1]; [19],{fraction (40/15 )}
same,Percent of wounds completely epithelized,"[1]; 10^-8M topical, day 13 after burning, listed as B-3",(67%)
same,percentage of wounds completely epithelized compared with other groups,"[1]; day thirteen, all concentrations",higher percentage of wounds completely epithelized on day thirteen
same,wound crust colour during absorption of applied agent,"[1]; first three days of treatment, normal again after 15 minutes",more pronounced
same,inhibition of MAO-A,MAO-A,decreased to an even greater extent
same,MAO-B inhibitory activity,monoamine oxidase B,reduced MAO-B inhibitory activity in comparison to selegiline
